Data from patent US20230374038A1, “MODULATORS OF CYSTIC FIBROSIS TRANSMEMBRANE CONDUCTANCE REGULATOR” (VERTEX PHARMACEUTICALS INCORPORATED, priority 2020, published 2023).

Target: CFTR (Homo sapiens, UniProt P13569)
Test: Membrane Potential Dye, Enteroid Assay B
Type: cell-based
Conditions: for EC50: read-out: Ent. B EC50
Procedure, shortened: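 Human intestinal enteroids seeded at 5000 cells/well, treated with compound 18-24 h at 37 °C, then loaded 25 min with methyl oxonol membrane-potential dye plus CaCC blockers. Chloride transport started in chloride-free buffer with 10 μM forskolin, 100 μM IBMX and 300 nM Compound III, read 15 min; expressed as % of triple-combination control.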

Chain of CFTR (P13569 with tags, fused parts or gaps DEL508-508): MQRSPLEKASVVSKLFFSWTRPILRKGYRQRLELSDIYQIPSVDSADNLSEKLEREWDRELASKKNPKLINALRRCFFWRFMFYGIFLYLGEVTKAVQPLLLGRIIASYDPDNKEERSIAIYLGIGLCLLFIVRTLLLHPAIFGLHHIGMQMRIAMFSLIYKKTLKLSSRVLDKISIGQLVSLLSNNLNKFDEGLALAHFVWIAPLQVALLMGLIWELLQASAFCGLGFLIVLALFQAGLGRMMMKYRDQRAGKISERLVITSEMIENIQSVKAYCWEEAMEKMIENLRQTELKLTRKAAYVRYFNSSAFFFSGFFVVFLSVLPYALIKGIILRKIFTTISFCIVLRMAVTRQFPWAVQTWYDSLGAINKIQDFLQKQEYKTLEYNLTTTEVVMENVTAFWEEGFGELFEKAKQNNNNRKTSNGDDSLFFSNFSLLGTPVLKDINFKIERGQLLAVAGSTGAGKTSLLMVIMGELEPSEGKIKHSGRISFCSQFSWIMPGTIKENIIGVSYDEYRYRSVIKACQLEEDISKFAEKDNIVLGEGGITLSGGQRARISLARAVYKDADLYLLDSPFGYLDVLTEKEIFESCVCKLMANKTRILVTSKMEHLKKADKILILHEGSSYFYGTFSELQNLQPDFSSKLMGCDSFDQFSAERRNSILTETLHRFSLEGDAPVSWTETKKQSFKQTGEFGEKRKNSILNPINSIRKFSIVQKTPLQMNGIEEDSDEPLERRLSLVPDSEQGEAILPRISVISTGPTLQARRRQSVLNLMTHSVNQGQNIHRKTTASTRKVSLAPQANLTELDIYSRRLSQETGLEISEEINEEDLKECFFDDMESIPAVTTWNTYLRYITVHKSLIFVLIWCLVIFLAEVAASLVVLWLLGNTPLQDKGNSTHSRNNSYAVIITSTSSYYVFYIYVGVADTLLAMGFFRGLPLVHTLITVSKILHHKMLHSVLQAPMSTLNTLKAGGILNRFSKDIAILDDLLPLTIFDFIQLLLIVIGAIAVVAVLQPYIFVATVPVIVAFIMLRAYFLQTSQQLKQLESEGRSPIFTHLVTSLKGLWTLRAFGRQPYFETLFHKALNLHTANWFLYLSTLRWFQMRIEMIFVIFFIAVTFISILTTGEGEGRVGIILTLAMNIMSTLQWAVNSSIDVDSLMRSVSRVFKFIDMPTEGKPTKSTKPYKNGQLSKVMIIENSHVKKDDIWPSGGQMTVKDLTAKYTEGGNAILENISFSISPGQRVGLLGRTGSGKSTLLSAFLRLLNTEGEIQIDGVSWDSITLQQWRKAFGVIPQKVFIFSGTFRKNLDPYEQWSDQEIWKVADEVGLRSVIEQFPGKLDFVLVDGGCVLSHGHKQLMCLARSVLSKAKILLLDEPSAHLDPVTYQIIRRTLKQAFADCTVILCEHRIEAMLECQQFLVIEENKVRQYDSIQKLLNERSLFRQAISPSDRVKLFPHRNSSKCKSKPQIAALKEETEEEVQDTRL

SMILES | Ent. B Max Activity | EC50 [nM]
Cc1ccc(C(F)(F)F)c(C)c1-c1nc2nc(c1C(F)(F)F)OC[C@@H](CC(C)C)NC(=O)c1cccc(c1)S(=O)(=O)N2 [Compound 163, (11R)-6-[2,6-Dimethyl-3-(trifluoromethyl)phenyl]-11-isobutyl-2,2-dioxo-7-(trifluoromethyl)-9-oxa-2λ^6-thia-3,5,12,19-tetrazatricyclo[12.3.1.14,8]nonadeca-1(18),4(19),5,7,14,16-hexaen-13-one] | +++ (+++ is >60%) | < 1000
Cc1cccc(C)c1-c1nc2nc(c1C)OC[C@@H](CC(C)(C)C)N(C1CC3(CC(CO)C3)C1)C(=O)c1cccc(c1)S(=O)(=O)N2 (stereo in doubt) [Compound 78] | +++ (+++ is >60%) | < 1000
Cc1cccc(C)c1-c1nc2nc(c1C)OC[C@@H](CC(C)(C)O)N(Cc1ncccn1)C(=O)c1cccc(c1)S(=O)(=O)N2 [Compound 111] | +++ (+++ is >60%) | 1000 to 3000
Cc1cccc(C)c1-c1nc2nc(c1-c1ccccn1)O[C@H](C)CNC(=O)c1cccc(c1)S(=O)(=O)N2 [Compound 154] | + (+ is <30%) | 3000 to 30000
Cc1cccc(C)c1-c1nc2nc(c1-c1ccccc1)O[C@H](C)CNC(=O)c1cccc(c1)S(=O)(=O)N2 [Compound 119, (10R)-6-(2,6-dimethylphenyl)-10-methyl-2,2-dioxo-7-phenyl-9-oxa-2λ^6-thia-3,5,12,19-tetrazatricyclo[12.3.1.14,8]nonadeca-1(18),4(19),5,7,14,16-hexaen-13-one] | +++ (+++ is >60%) | < 1000
Cc1cccc(C)c1-c1nc2nc(c1C)OC[C@@H](CC(C)C)N([C@H]1C[C@@]3(C[C@H](NC(=O)OC(C)C)C3)C1)C(=O)c1cccc(c1)S(=O)(=O)N2 (single isomer, unassigned) [Compound 51] | +++ (+++ is >60%) | < 1000
Cc1cccc(C)c1-c1nc2nc(c1CCC(C)(C)C)OC[C@@H](C)NC(=O)c1cccc(c1)S(=O)(=O)N2 [Compound 125, (11R)-7-(3,3-Dimethylbutyl)-6-(2,6-dimethylphenyl)-11-methyl-2,2-dioxo-9-oxa-2λ^6-thia-3,5,12,19-tetrazatricyclo[12.3.1.14,8]nonadeca-1(18),4(19),5,7,14,16-hexaen-13-one] | ++ (++ is 30-60%) | < 1000
Cc1cccc(C)c1-c1nc2nc(c1C)O[C@H](C)CNC(=O)c1cccc(c1)S(=O)(=O)N2 [Compound 202] | ++ (++ is 30-60%) | 1000 to 3000
Cc1cccc(C)c1-c1nc2nc(c1C)OC[C@@H](CCC(C)(C)O)N(Cc1ncccn1)C(=O)c1cccc(c1)S(=O)(=O)N2 [Compound 113] | ++ (++ is 30-60%) | 3000 to 30000
Cc1cccc(C)c1-c1nc2nc(c1-c1ccn(C)n1)O[C@H](C)CNC(=O)c1cccc(c1)S(=O)(=O)N2 [Compound 129] | + (+ is <30%) | 
Cc1cccc(C)c1-c1nc2nc(c1C)OC[C@@H](CC(C)C)N(C1CC3(CCN(C)CC3)C1)C(=O)c1cccc(c1)S(=O)(=O)N2 [Compound 74] | +++ (+++ is >60%) | < 1000
Cc1cccc(C)c1-c1nc2nc(c1C)OC[C@@H](CC(C)C)N(C1CC3(CC(CO)C3)C1)C(=O)c1cccc(c1)S(=O)(=O)N2 (stereo in doubt) [Compound 67] | +++ (+++ is >60%) | < 1000
Cc1cccc(C)c1-c1nc2nc(c1C)OC[C@@H](CC(C)(C)O)N(CCCC(C)(C)O)C(=O)c1cccc(c1)S(=O)(=O)N2 [Compound 110] | + (+ is <30%) | 
